{"source": "patent US9011956B2", "about": "“Natural high-potency sweetener compositions with improved temporal profile and/or flavor profile, methods for their formulation, and uses” (The Coca-Cola Company, priority 2005, dated 2015)", "key": {"[1]": {"assay": "Sweetness linger sensory evaluation by expert panel (protocol of Example A)", "assay_type": "in vivo, human", "parameters": "key: 0=no sweetness linger; 1=very slight sweetness linger; 2=slight sweetness linger; 3=moderate sweetness linger; 4=moderately high sweetness linger; 5=high sweetness linger", "method": "In a particular embodiment, a panel of assessors is used to measure the reduction of sweetness linger. Briefly described, a panel of assessors (generally 8 to 12 individuals) is trained to evaluate sweetness perception and measure sweetness at several time points from when the sample is initially taken into the mouth until 3 minutes after it has been expectorated. […] A decrease in score for a time point measured after the sample has cleared the mouth indicates there has been a reduction in sweetness perception.\nGenerally, the method of measuring sweetness comprises taking a 10 mL sample into the mouth, holding the sample in the mouth for 5 seconds and gently swirling the sample in the mouth, rating the sweetness intensity perceived at 5 seconds, expectorating the sample (without swallowing following expectorating the sample), rinsing with one mouthful of water (e.g., vigorously moving water in mouth as if with mouth wash) and expectorating the rinse water, rating the sweetness intensity perceived immediately upon expectorating the rinse water, waiting 45 seconds and, while waiting those 45 seconds, identifying the time of maximum perceived sweetness intensity and rating the sweetness intensity at that time (moving the mouth normally and swallowing as needed), rating the sweetness intensity after another 10 seconds, rating the sweetness intensity after another 60 seconds (cumulative 120 seconds after rinse), and rating the sweetness intensity after still another 60 seconds (cumulative 180 seconds after rinse). Between samples take a 5 minute break, rinsing well with water to clear the mouth.\n(§1) An exemplary method of sensory evaluation is provided in the following protocol, similar to that described hereinabove. In this test protocol, none of the samples were swallowed. All samples were expectorated and the mouth was rinsed with water after the tasting. In step 1, the 10% sucrose control sample was tasted by distributing ca. 10 mL of sample quickly throughout the oral cavity, wherein the maximal “Sweetness Intensity” was measured. This intensity is defined as a 10 on a 0-15 scale where 0 is defined as no perceptible sweetness and 15, the sweetness of 15% sucrose. Immediately upon sensing maximal sweetness, the sample was expectorated, the mouth was rinsed with water and the rate of sweetness decay (“Sweetness Linger”) was measured, where attention was focused on the sweetness 3-4 min after the water rinse. The sweetness linger was rated by a panel of experts in the sensory evaluation of foods and beverages using the following scale: 0=no sweetness linger, 1=very slight sweetness linger, 2=slight sweetness linger, 3=moderate sweetness linger, 4=moderately high sweetness linger, 5=high sweetness linger. After sample tasting was complete, a salty oyster cracker was chewed followed by a water rinse, and at least 5 minutes followed before tasting the next sample.\nThe “Sweetness Linger” rating for sucrose observed by this protocol was defined as 0. Experimental samples were tasted by the same protocol, always allowing sufficient time between samples to ensure re-equilibration of the sensory system. Re-tasting of control samples during the course of the experiment was allowed and encouraged.\nThe comparison taste test was performed between two controls and addition of sweet taste improving additive on the onset and/or sweetness linger.\nWhere there are ranges provided in the examples, a number of beverages comprising the NHPS, such as rebaudioside-A (REBA), were made 5-7 levels from the top to the bottom range, using a 1:1 dilution of the corresponding sweet taste improving compositions. The sweetness linger rating reported was the most sugar-like in sweetness linger (the lowest numerical value) attained of all the samples (i.e., the shortest sweetness linger). The tasting protocol and sensory scores described in the exemplary protocol of Example A were used in the Examples of Set B. […]"}, "[2]": {"assay": "Sweetness level as sucrose equivalent", "assay_type": "in vivo, human", "method": "as §1"}, "[3]": {"assay_type": "physicochemical", "method": "A solution of rebaudioside A (>97% pure by HPLC) was prepared in double distilled water (12.5 gm in 50 mL, 25% concentration) by stirring the mixture at 40° C. for 5 minutes. An amorphous form of rebaudioside A was formed by immediately using the clear solution for spray drying with the Lab-Plant spray drier SD-04 instrument (Lab-Plant Ltd., West Yorkshire, U.K.). The solution was fed through the feed pump into the nozzle atomizer which atomized it into a spray of droplets with the help of a constant flow of nitrogen/air. […] This dry powder (11-12 g, H2O 6.74%) was discharged continuously from the drying chamber and was collected in a bottle."}}, "data": [{"compound": "rebaudioside A", "values": [{"measurement": "sweetness linger rating", "setting": "[1]; control: 400 ppm REBA in citric acid/potassium citrate composition equivalent to diet lemon-lime beverage", "result": 5}, {"measurement": "sweetness linger rating", "setting": "[1]; control: 500 ppm REBA in carbon-treated water, phosphoric acid to pH 2.4-2.5", "result": 5}, {"measurement": "sucrose equivalent of sweetness", "setting": "[2]; 180 ppm REBA", "result": 5, "unit": "% sucrose"}, {"measurement": "sucrose equivalent of sweetness", "setting": "[2]; 400 ppm REBA in citric acid/potassium citrate composition", "result": 8, "unit": "g sucrose"}]}, {"compound": "rebaudioside A [Form 4]", "values": [{"measurement": "solubility in water at room temperature", "setting": "[3]", "result": "> 35.0", "unit": "%"}]}, {"compound": "mono-ammonium glycyrrhizic acid salt hydrate", "values": [{"measurement": "sweetness linger", "setting": "[1]; control: 375 mg in one liter of carbon-treated water", "result": 5}, {"measurement": "sweetness level", "setting": "[2]; 375 mg in one liter of carbon-treated water", "result": 4, "unit": "% sucrose equivalent"}]}, {"compound": "OC[C@H]1O[C@@](CO)(O[C@H]2O[C@H](CO)[C@@H](O)[C@H](O)[C@H]2O)[C@@H](O)[C@@H]1O", "note": "[sugar, sucrose]", "values": [{"measurement": "sweetness linger rating", "setting": "[1]; control: 8 g of sugar in 100 ml of citrate buffer", "result": 0}, {"measurement": "sweetness linger rating", "setting": "[1]; control: 10 g in 100 ml of carbon treated water", "result": 0}, {"measurement": "sweetness linger rating", "setting": "[1]; control: 10 g of sugar in 100 ml carbon treated water, phosphoric acid to pH 2.4-2.5", "result": 0}]}]}
